In data set [1] the test system is PC-12 cells. The data set can be described thus: MTT reduction test, Aβ1-42-induced cell toxicity. In kind it is cell-based. Particulars: batch containing only Mosd1, 24 hours, 37° C. As for the experimental part: The samples were placed in the culture medium of the cells and were incubated over 24 hours with the cells at 37° C. The viability of the cells was then determined on the basis of an MTT test. Here, a metabolic reactant was supplied to the cells, which reactant could be converted by metabolically active cells (living cells). Formazan crystals are the product of this conversion and can be dissolved. The coloration of the medium after solubilization corresponds to the conversion rate of the reactant and therefore the viability of the cells. Untreated cells (medium, white chequered pattern) served as living control, and the proportion of vital cells was defined as 100%. The values of the other batches were normalized to this value.

Data set [2] concerns the target Aβ1-42 species of different size (Homo sapiens, UniProt P05067). Kind of data set: Quantification of density gradient fractions by RP-HPLC. In kind it is biochemical. An excerpt:
Certain further embodiments of the invention including a method will be presented hereinafter. What is known as the QIAD test (quantitative determination of interference with Aβ aggregate size distribution) can be used for the quantitative analysis of active substances. The method for quantitative analysis of the influence of an active substance on the particle size distribution of amyloid peptides and/or proteins in a sample has the following steps: A beta is first left to aggregate under controlled conditions, so that different A beta aggregates form. The conditions are selected so that a particularly large amount of small, particularly cytotoxic A beta oligomers are formed. […] This change is determined quantitatively. […] Due to the QIAD method, the increase or decrease of A beta aggregates of a specific particle size is measured. […] The concentration of A beta in the respective fractions is then determined by a complete denaturing of the A beta species during a reversed-phase (RP-)HPLC performed subsequently to the fractionation. […] Eluting A beta is detected by means of UV absorption at 215 nm. […] The mean value from a number of experiments carried out independently of one another (for example six) with the resultant standard deviation can be calculated for each fraction. […]
Samples of each fraction from the experiment shown in FIG. 5 were separated and quantified by means of reversed-phase HPLC. […]

Molecules are shown by their SMILES. Square brackets hold non-standard residues; d marks the D form. Peptide text beside a SMILES is read from it.

Aβ1-42 species of different size, sequence (P05067 672-713 limits assumed): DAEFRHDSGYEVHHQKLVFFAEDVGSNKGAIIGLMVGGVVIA

`CSCC[C@@H](NC(=O)[C@@H](Cc1c[nH]cn1)NC(=O)[C@@H](Cc1ccc(O)cc1)NC(=O)[C@@H](CO)NC(=O)[C@H](NC(=O)[C@@H](CC(C)C)NC(=O)[C@@H](Cc1ccc(O)cc1)NC(=O)[C@@H](CO)NC(=O)[C@H](N)Cc1ccc(O)cc1)[C@H](C)O)C(=O)N[C@@H](C(=O)N[C@H](Cc1c[nH]c2ccccc12)C(=O)N[C@H](CCCNC(=N)N)C(N)=O)C(C)C` [Mosd1] (H-[dY][dS][dY][dL][dT][dS][dY][dH][dM][dV][dW][dR]-NH2): in data set [1], the “viability of PC-12 cells, peptide alone” value is “no influence”. In addition, in data set [2] (10-80 μM Mosd1, 80 μM Aβ1-42), the “concentration of high-molecular Aβ species (fractions 11-14)” value is “rises”. Moreover, the “concentrations of Aβ in the fractions which contained the toxic oligomers” value in data set [2] (10-80 μM Mosd1, 80 μM Aβ1-42, 3 independent experiments) was “decrease with increasing concentration of Mosd1”.

Source of the values: US10239923B2, “Specific amyloid beta binding peptides and the use of same for treating and diagnosing alzheimer's dementia” (Forschungszentrum Juelich GmbH, priority 2015, dated 2019).
